Assay results from patent US9688699B2, “3-(pyrimidine-2-yl)imidazo[1,2-a]pyridines” (Bayer Pharma Aktiengesellschaft, priority 2014, dated 2017).
Where a name gives a salt, the structure may show the parent alone.

Columns and labels:
[1] = molecular target: T1, recombinant guanylate cyclase reporter cell line (Rattus norvegicus, UniProt P19686+P20595); assay: Effect on a recombinant guanylate cyclase reporter cell line (B-2); format: cell-based; details: MEC = minimum effective concentration, in some cases mean values for individual determinations
T1 construct: expressed in transfected cells
T1 sequence (P19686 1-690): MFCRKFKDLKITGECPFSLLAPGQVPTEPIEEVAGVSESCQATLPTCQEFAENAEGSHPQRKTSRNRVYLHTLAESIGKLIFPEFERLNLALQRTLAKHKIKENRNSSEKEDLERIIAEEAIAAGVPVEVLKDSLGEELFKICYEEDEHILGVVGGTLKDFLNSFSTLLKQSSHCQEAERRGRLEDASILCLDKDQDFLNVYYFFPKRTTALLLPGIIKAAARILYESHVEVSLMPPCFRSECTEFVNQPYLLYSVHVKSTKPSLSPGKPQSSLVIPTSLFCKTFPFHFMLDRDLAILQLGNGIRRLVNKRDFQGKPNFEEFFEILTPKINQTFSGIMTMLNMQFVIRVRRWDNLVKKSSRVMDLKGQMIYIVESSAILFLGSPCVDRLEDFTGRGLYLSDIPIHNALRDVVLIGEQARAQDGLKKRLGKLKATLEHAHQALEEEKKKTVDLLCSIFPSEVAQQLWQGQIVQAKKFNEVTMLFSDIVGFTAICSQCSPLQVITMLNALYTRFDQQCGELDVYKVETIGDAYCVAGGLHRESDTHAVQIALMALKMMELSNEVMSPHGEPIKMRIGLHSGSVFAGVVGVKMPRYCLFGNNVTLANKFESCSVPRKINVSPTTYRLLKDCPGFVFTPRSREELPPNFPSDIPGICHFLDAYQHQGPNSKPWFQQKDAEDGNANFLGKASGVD
T1 sequence (P20595 1-619): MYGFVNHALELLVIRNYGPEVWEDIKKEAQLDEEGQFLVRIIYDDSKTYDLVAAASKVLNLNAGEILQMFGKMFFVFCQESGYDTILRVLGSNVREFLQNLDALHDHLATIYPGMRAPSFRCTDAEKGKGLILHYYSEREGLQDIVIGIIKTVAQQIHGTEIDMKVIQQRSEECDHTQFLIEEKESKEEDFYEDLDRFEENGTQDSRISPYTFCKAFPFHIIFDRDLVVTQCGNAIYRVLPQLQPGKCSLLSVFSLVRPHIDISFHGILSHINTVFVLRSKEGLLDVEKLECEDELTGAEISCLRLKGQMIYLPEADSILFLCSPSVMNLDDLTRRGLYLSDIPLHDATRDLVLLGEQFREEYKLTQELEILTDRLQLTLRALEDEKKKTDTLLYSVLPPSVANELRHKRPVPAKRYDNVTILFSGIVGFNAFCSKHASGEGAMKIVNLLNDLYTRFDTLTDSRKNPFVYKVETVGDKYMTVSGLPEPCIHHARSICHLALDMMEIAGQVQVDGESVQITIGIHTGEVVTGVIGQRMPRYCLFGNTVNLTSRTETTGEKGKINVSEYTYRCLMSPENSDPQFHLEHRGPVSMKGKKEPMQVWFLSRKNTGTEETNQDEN
Description: B-2. Effect on a Recombinant Guanylate Cyclase Reporter Cell Line
The cellular activity of the compounds according to the invention is determined using a recombinant guanylate cyclase reporter cell line, as described in F. Wunder et al., Anal. Biochem. 339, 104-112 (2005).
Representative MEC values (MEC=minimum effective concentration) for the compounds of the invention are shown in Table 1 below (in some cases as mean values for individual determinations): […]

[2] = molecular target: T2, human phosphodiesterase 5 (PDE 5) (Homo sapiens, UniProt O76074); assay: Inhibition of human phosphodiesterase 5 (PDE 5) (B-3); format: biochemical; details: PDE 5 preparation from human platelets; [8-3H] cGMP substrate, SPA; in some cases means of individual determinations
T2 construct: PDE 5 preparations are obtained from human platelets by disruption; from tissue; host or cells: human platelets (Mono Q ion exchange fractions with PDE 5 activity)
Description: B-3. Inhibition of Human Phosphodiesterase 5 (PDE 5)
PDE 5 preparations are obtained from human platelets by disruption (Microfluidizer®, 800 bar, 3 passes), followed by centrifugation (75 000 g, 60 min, 4° C.) and ion exchange chromatography of the supernatant on a Mono Q 10/10 column (linear sodium chloride gradient, elution with a 0.2-0.3M solution of sodium chloride in buffer (20 mM Hepes pH 7.2, 2 mM magnesium chloride). Fractions having PDE 5 activity are combined (PDE 5 preparation) and stored at −80° C.
To determine their in vitro action on human PDE 5, the test substances are dissolved in 100% DMSO and serially diluted. Typically, dilution series (1:3) from 200 μM to 0.091 μM are prepared (resulting final concentrations in the test: 4 μM to 0.0018 μM). In each case 2 μl of the diluted substance solutions are placed into the wells of microtitre plates (Isoplate-96/200 W; Perkin Elmer). Subsequently, 50 μl of a dilution of the above-described PDE 5 preparation are added. The dilution of the PDE 5 preparation is chosen such that during the later incubation less than 70% of the substrate are converted (typical dilution: 1:100; dilution buffer: 50 mM tris/hydrochloric acid pH 7.5, 8.3 mM magnesium chloride, 1.7 mM EDTA, 0.2% BSA). The substrate, [8-^3H] cyclic guanosine-3′,5′-monophosphate (1 μCi/μl; Perkin Elmer), is diluted 1:2000 with assay buffer (50 mM tris/hydrochloric acid pH 7.5, 8.3 mM magnesium chloride, 1.7 mM EDTA) to a concentration of 0.0005 μCi/μl. By addition of 50 μl (0.025 μCi) of the diluted substrate, the enzyme reaction is finally started. The test mixtures are incubated at room temperature for 60 min and the reaction is stopped by adding 25 μl of a suspension of 18 mg/ml yttrium scintillation proximity beads in water (phosphodiesterase beads for SPA assays, RPNQ 0150, Perkin Elmer). The microtitre plates are sealed with a film and left to stand at room temperature for 60 min. Subsequently, the plates are analysed for 30 s per well in a Microbeta scintillation counter (Perkin Elmer). IC50 values are determined using the graphic plot of the substance concentration against percentage PDE 5 inhibition.

`Cc1nc2c(OCc3c(F)cccc3F)cccn2c1-c1nc2c(c(NC3CCC(C)(O)CC3)n1)C(C)(C)C(=O)N2` (single isomer, unassigned; diastereomer 1) [Example 28, 2-{8-[(2,6-difluorobenzyl)oxy]-2-methylimidazo[1,2-a]pyridin-3-yl)-4-[(4-hydroxy-4-methylcyclohexyl)amino]-5,5-dimethyl-5,7-dihydro-6H-pyrrolo[2,3-d]pyrimidin-6-one formate (Diastereomer 1)] gave an MEC [1] of 0.3 µM and an IC50 [2] of 0.0003 µM.
Molecule `Cc1nc2c(OCc3c(F)cccc3F)cccn2c1-c1nc2c(c(NC3CCC(C)(O)CC3)n1)C(C)(C)C(=O)N2` (single isomer, unassigned; diastereomer 2) [Example 29, 2-{8-[(2,6-difluorobenzyl)oxy]-2-methylimidazo[1,2-a]pyridin-3-yl}-4-[(4-hydroxy-4-methylcyclohexyl)amino]-5,5-dimethyl-5,7-dihydro-6H-pyrrolo[2,3-d]pyrimidin-6-one formate (Diastereomer 2)] has an MEC [1] of 0.3 µM and an IC50 [2] of 0.0009 µM.
Work on `Cc1nc2c(OCc3c(F)cccc3F)cccn2c1-c1nc(NCC(N)c2ccc(F)c(F)c2)c2c(n1)NC(=O)C2(C)C` (single isomer, unassigned; ent-4) [Example 14, ent-4-{[2-Amino-2-(3,4-difluorophenyl)ethyl]amino}-2-{8-[(2,6-difluorobenzyl)oxy]-2-methylimidazo[1,2-a]pyridin-3-yl}-5,5-dimethyl-5,7-dihydro-6H-pyrrolo[2,3-d]pyrimidin-6-one] yielded an MEC [1] of 3 µM and an IC50 [2] of 0.091 µM.
For `COCC(C)(N)CNc1nc(-c2c(C)nc3c(OCc4c(F)cccc4F)cccn23)nc2c1C(C)(C)C(=O)N2` (single isomer, unassigned; ent-4) [Example 45, ent-4-[(2-Amino-3-methoxy-2-methylpropyl)amino]-2-{8-[(2,6-difluorobenzyl)oxy]-2-methylimidazo[1,2-a]pyridin-3-yl}-5,5-dimethyl-5,7-dihydro-6H-pyrrolo[2,3-d]pyrimidin-6-one (Enantiomer A)], the MEC [1] was 1 µM and the IC50 [2] was 0.0098 µM.
In the case of `COCC(C)(N)CNc1nc(-c2c(C)nc3c(OCc4c(F)cccc4F)cccn23)nc2c1C(C)(C)C(=O)N2` (single isomer, unassigned; ent-4) [Example 46, ent-4-[(2-Amino-3-methoxy-2-methylpropyl)amino]-2-{8-[(2,6-difluorobenzyl)oxy]-2-methylimidazo[1,2-a]pyridin-3-yl}-5,5-dimethyl-5,7-dihydro-6H-pyrrolo[2,3-d]pyrimidin-6-one (Enantiomer B)], the MEC [1] is reported as 1 µM and the IC50 [2] is reported as 0.12 µM.
`Cc1nc2c(OCc3c(F)cccc3F)cccn2c1-c1nc(N)c2c(n1)NC(=O)C2(C)C` [Example 1, 4-Amino-2-{8-[(2,6-difluorobenzyl)oxy]-2-methylimidazo[1,2-a]pyridin-3-yl}-5,5-dimethyl-5,7-dihydro-6H-pyrrolo[2,3-d]pyrimidin-6-one] showed an MEC [1] of 0.3 µM and an IC50 [2] of 0.034 µM.
Work on `Cc1nc2c(OCc3c(F)cccc3F)cccn2c1-c1nc(I)c2c(n1)NC(=O)C2(C)C` [Example 2, 2-{8-[(2,6-Difluorobenzyl)oxy]-2-methylimidazo[1,2-a]pyridin-3-yl}-4-iodo-5,5-dimethyl-5,7-dihydro-6H-pyrrolo[2,3-d]pyrimidin-6-one] yielded an MEC [1] of 5.3 µM and an IC50 [2] of 0.3 µM.
`Cc1nc2c(OCc3c(F)cccc3F)cccn2c1-c1nc(Cl)c2c(n1)NC(=O)C2(C)C` [Example 4, 4-Chloro-2-{8-[(2,6-difluorobenzyl)oxy]-2-methylimidazo[1,2-a]pyridin-3-yl}-5,5-dimethyl-5,7-dihydro-6H-pyrrolo[2,3-d]pyrimidin-6-one] showed an MEC [1] of 3 µM and an IC50 [2] of 0.11 µM.
`Cc1nc2c(OCc3c(F)cccc3F)cccn2c1-c1nc(O)c2c(n1)NC(=O)C2(C)C` [Example 5, 2-{8-[(2,6-Difluorobenzyl)oxy]-2-methylimidazo[1,2-a]pyridin-3-yl}-4-hydroxy-5,5-dimethyl-5,7-dihydro-6H-pyrrolo[2,3-d]pyrimidin-6-one trifluoroacetate] gave an MEC [1] of 3 µM and an IC50 [2] of 0.69 µM.
For `Cc1nc2c(OCc3c(F)ccc(F)c3F)cccn2c1-c1nc(N)c2c(n1)NC(=O)C2(C)C` [Example 9, 4-Amino-5,5-dimethyl-2-{2-methyl-8-[(2,3,6-trifluorobenzyl)oxy]imidazo[1,2-a]pyridin-3-yl}-5,7-dihydro-6H-pyrrolo[2,3-d]pyrimidin-6-one], the MEC [1] was 1 µM and the IC50 [2] was 0.017 µM.
`Cc1nc2c(OCc3c(F)ccc(F)c3F)cccn2c1-c1nc(O)c2c(n1)NC(=O)C2(C)C` [Example 11, 4-Hydroxy-5,5-dimethyl-2-{2-methyl-8-[(2,3,6-trifluorobenzyl)oxy]imidazo[1,2-a]pyridin-3-yl}-5,7-dihydro-6H-pyrrolo[2,3-d]pyrimidin-6-one] was tested, and the MEC [1] was 3 µM and the IC50 [2] was 0.26 µM.
In the case of `Cc1nc2c(OCc3c(F)cccc3F)cccn2c1-c1nc(NCC(C)(C)N)c2c(n1)NC(=O)C2(C)C` [Example 12, 4-[(2-Amino-2-methylpropyl)amino]-2-{8-[(2,6-difluorobenzyl)oxy]-2-methylimidazo[1,2-a]pyridin-3-yl}-5,5-dimethyl-5,7-dihydro-6H-pyrrolo[2,3-d]pyrimidin-6-one], the MEC [1] is reported as 0.2 µM and the IC50 [2] is reported as 0.0036 µM.
In the case of `Cc1nc2c(OCc3c(F)cccc3F)cccn2c1-c1nc2c(c(N[C@H]3CC[C@H](O)CC3)n1)C(C)(C)C(=O)N2` [Example 15, 2-{8-[(2,6-Difluorobenzyl)oxy]-2-methylimidazo[1,2-a]pyridin-3-yl}-4-[(trans-4-hydroxycyclohexyl)amino]-5,5-dimethyl-5,7-dihydro-6H-pyrrolo[2,3-d]pyrimidin-6-one], the MEC [1] is reported as 3 µM and the IC50 [2] is reported as 0.0025 µM.
In the case of `Cc1nc2c(OCc3c(F)cccc3F)cccn2c1-c1nc(NCC(C)(C)O)c2c(n1)NC(=O)C2(C)C` [Example 16, 2-{8-[(2,6-Difluorobenzyl)oxy]-2-methylimidazo[1,2-a]pyridin-3-yl}-4-[(2-hydroxy-2-methylpropyl)amino]-5,5-dimethyl-5,7-dihydro-6H-pyrrolo[2,3-d]pyrimidin-6-one], the MEC [1] is reported as 0.65 µM and the IC50 [2] is reported as 0.0048 µM.
